Remaining activity data for 27 molecules are collected here from paper PMC8286840, “Identifying SARS-CoV-2 antiviral compounds by screening for small molecule inhibitors of Nsp3 papain-like protease” (Biochemical Journal, 2021).

In assay [1] the target is T1, SARS-CoV-2 PLpro (nsp3 1564–1878) (Severe acute respiratory syndrome coronavirus 2, UniProt P0DTD1). Description: biochemical. Set-up: FRET-quenched peptide (Pro3) cleavage by PLpro, 10 min pre-incubation, slope over 20 min, normalised to no-compound control. Conditions: low concentration screen, read-out: % of control remaining.
The target of assay [2] is T1, SARS-CoV-2 PLpro (nsp3 1564–1878). Description: biochemical. The following applies: high concentration screen, read-out: % of control remaining. The arrangement: FRET-quenched peptide (Pro3) cleavage by PLpro, 10 min pre-incubation, slope over 20 min, normalised to no-compound control.

The structures appear in SMILES notation. Counter-ions that a name gives are not always drawn. Like-named read-outs stand apart in the source and are kept apart here.

Consider `CCCn1c(=O)[nH]c(=O)c2[nH]cnc21` [3-n-Propylxanthine], for which the remaining activity at 1.25 µM in assay [1] (Well no.=910) was 105%. Further, the remaining activity at 3.75 µM in assay [2] (Well no.=910) was 104%.

With `COc1ccccc1N1CCN(CCCCN2C(=O)c3ccccc3C2=O)CC1` [NAN-190 hydrobromide], in assay [1] (Well no.=1141), the remaining activity at 1.25 µM worked out at 97%. For the same molecule, the remaining activity at 3.75 µM in assay [2] (Well no.=1141) stood at 99.5%.

For the molecule `C[C@@H]1C(=O)O[C@H]2C[C@@]34[C@H]5C[C@@H](C(C)(C)C)[C@]36[C@@H](OC(=O)[C@@H]6O)O[C@@]4(C(=O)O5)[C@]21O` [Ginkgolide A], the remaining activity at 1.25 µM in assay [1] (Well no.=1908) worked out at 98.7%; in assay [1] (Well no.=3613) it was 106%. In addition, the remaining activity at 3.75 µM in assay [2] (Well no.=1908) is 96.1%; in assay [2] (Well no.=3613) it was 104%.

Regarding `Brc1ccc([C@H]2CN3CCSC3=N2)cc1` [S(-)-p-Bromotetramisole oxalate], in assay [1] (Well no.=99), the remaining activity at 1.25 µM was 104%. Moreover, the remaining activity at 3.75 µM in assay [2] (Well no.=99) worked out at 102%.

`CCCC(CCC)C(=O)O` [Divalproex sodium]: in assay [1] (Well no.=5341), the remaining activity at 1.25 µM was 97.2%. The remaining activity at 3.75 µM in assay [2] (Well no.=5341) is 95.4%.

Turning to `COc1c(C)c2c(c(O)c1C/C=C(\C)CCC(=O)OCCN1CCOCC1)C(=O)OC2` [Mycophenolate mofetil], the remaining activity at 1.25 µM in assay [1] (Well no.=1923) came out at 103%. Also, the remaining activity at 3.75 µM in assay [2] (Well no.=1923) is 103%.

For `COc1ccc(-c2ccc(=N)n(CCCC(=O)O)n2)cc1` [SR-95531], the remaining activity at 1.25 µM in assay [1] (Well no.=1325) was found to be 103%. Moreover, the remaining activity at 3.75 µM in assay [2] (Well no.=1325) worked out at 98.9%.

With `CNC(=O)c1cccc(-c2ccc3c(N4CCOC[C@@H]4C)nc(N4CCOC[C@@H]4C)nc3n2)c1` [AZD2014], the remaining activity at 1.25 µM in assay [1] (Well no.=5115) stood at 106%. Further, in assay [2] (Well no.=5115), the remaining activity at 3.75 µM is 107%.

As to `COc1ccc(NS(=O)(=O)c2ccc(N)cc2)nn1` [Sulfamethoxypyridazine], the remaining activity at 1.25 µM came to 101% in assay [1] (Well no.=7354) and 94.6% in assay [1] (Well no.=8613). Further, the remaining activity at 3.75 µM in assay [2] (Well no.=7354) was 99.7%; in assay [2] (Well no.=8613) it was 94.7%.

In the case of `O=C(O)CNC(=O)C1C(=O)N(C2CCCCC2)C(=O)N(C2CCCCC2)C1=O` [Daprodustat (GSK1278863)], the remaining activity at 1.25 µM in assay [1] (Well no.=8534) is 96.6%. Moreover, the remaining activity at 3.75 µM in assay [2] (Well no.=8534) worked out at 99.9%.

In the case of `C=CC[C@@H]1/C=C(\C)C[C@H](C)C[C@H](OC)[C@H]2O[C@@](O)(C(=O)C(=O)N3CCCC[C@H]3C(=O)O[C@H](/C(C)=C/[C@@H]3CC[C@@H](O)[C@H](OC)C3)[C@H](C)[C@@H](O)CC1=O)[C@H](C)C[C@@H]2OC` [Tacrolimus (monohydrate)], the remaining activity at 1.25 µM in assay [1] (Well no.=6306) turned out to be 96.8%; in assay [1] (Well no.=7308) it was 104%. Moreover, the remaining activity at 3.75 µM in assay [2] (Well no.=6306) was 93.9%; in assay [2] (Well no.=7308), 107%.

As for `COc1cc2ncnc(Nc3cccc(O)c3)c2cc1OC` [WHI-P180, Hydrochloride], in assay [1] (Well no.=2679), the remaining activity at 1.25 µM is 96%. Besides, in assay [2] (Well no.=2679), the remaining activity at 3.75 µM is 96.7%.

Consider `O=c1[nH][nH]c2nnc(-c3c(-c4ccccc4)nn4ccccc34)cc12` [ERK Inhibitor II, Negative control], for which, in assay [1] (Well no.=2456), the remaining activity at 1.25 µM amounted to 98.3%. Besides, the remaining activity at 3.75 µM in assay [2] (Well no.=2456) stood at 102%.

On to `CC(C)[C@H](CO)Nc1nc(Nc2ccc(C(=O)O)c(Cl)c2)c2ncn(C(C)C)c2n1` [Purvalanol B], for which the remaining activity at 1.25 µM in assay [1] (Well no.=2843) is 96.5%. In assay [2] (Well no.=2843), the remaining activity at 3.75 µM came to 94.9%.

Consider `CCCCCCCCCCC/C=C/CCCCCC(=O)O` [7(E)-Nonadecenoic acid], for which the remaining activity at 1.25 µM in assay [1] (Well no.=4366) is 105%. For the same molecule, the remaining activity at 3.75 µM in assay [2] (Well no.=4366) was 97.4%.

Turning to `O=C(O)/C=C/c1ccc(Cn2ccnc2)cc1` [Ozagrel HCl], the remaining activity at 1.25 µM in assay [1] (Well no.=4726) is 108%. Further, the remaining activity at 3.75 µM in assay [2] (Well no.=4726) is 101%.

In the case of `Cc1c(Cl)cccc1Nc1ccccc1C(=O)O` [Tolfenamic acid], the remaining activity at 1.25 µM in assay [1] (Well no.=1996) was found to be 97.1%. For the same molecule, the remaining activity at 3.75 µM in assay [2] (Well no.=1996) was determined as 99.1%.

For the molecule `CNC(=O)c1ccccc1Sc1ccc2c(/C=C/c3ccccn3)n[nH]c2c1` [Axitinib], the remaining activity at 1.25 µM in assay [1] (Well no.=2803) worked out at 101%. In assay [2] (Well no.=2803), the remaining activity at 3.75 µM came out at 99.1%.

Take `Cn1cc(/C=C/C(=O)c2cccc(F)c2)cc1/C=C/C(=O)NO` [MC1568]: in assay [1] (Well no.=4905), the remaining activity at 1.25 µM turned out to be 102%. In addition, the remaining activity at 3.75 µM in assay [2] (Well no.=4905) was found to be 101%.

Take `C#C[C@]1(O)CC[C@H]2[C@@H]3CCC4=CC(=O)CC[C@@H]4[C@H]3CC[C@@]21CC` [Levonorgestrel]: the remaining activity at 1.25 µM in assay [1] (Well no.=2262) turned out to be 93.9%. Besides, in assay [2] (Well no.=2262), the remaining activity at 3.75 µM worked out at 102%.

As for `C=C(C)[C@H]1Cc2c(ccc3c2O[C@@H]2COc4cc(OC)c(OC)cc4[C@@H]2C3=O)O1` [Rotenone], the remaining activity at 1.25 µM amounted to 97.2% in assay [1] (Well no.=1494), 104% in assay [1] (Well no.=3142) and 91.7% in assay [1] (Well no.=7122). In addition, the remaining activity at 3.75 µM in assay [2] (Well no.=1494) was 98.9%; in assay [2] (Well no.=3142) it was 98.6%; in assay [2] (Well no.=7122), 89.8%.

For `COC(=O)c1cnn(-c2ccc(F)cc2F)c1/C=N/NC(=S)NC(C)(C)C` [ML194], the remaining activity at 1.25 µM in assay [1] (Well no.=5766) stood at 99.4%. In addition, the remaining activity at 3.75 µM in assay [2] (Well no.=5766) amounted to 95.8%.

As for `CC(=O)N[C@@H](CSC/C=C(\C)CC/C=C(\C)CCC=C(C)C)C(=O)O` [Acetyl-farnesyl-cysteine], the remaining activity at 1.25 µM in assay [1] (Well no.=4342) turned out to be 102%. Also, in assay [2] (Well no.=4342), the remaining activity at 3.75 µM was found to be 102%.

For `Cc1c2ccncc2c(C)c2c1[nH]c1ccccc12` [Ellipticine], the remaining activity at 1.25 µM in assay [1] (Well no.=651) came to 95.5%; in assay [1] (Well no.=3271), 102%. For the same molecule, the remaining activity at 3.75 µM in assay [2] (Well no.=651) is 91.7%; in assay [2] (Well no.=3271), 98%.

Consider `N[C@@H](Cc1ccccc1)C(=O)N1C/C(=C/c2ccc(Cl)c(Cl)c2)C(=O)/C(=C\c2ccc(Cl)c(Cl)c2)C1` [RA190], for which the remaining activity at 1.25 µM in assay [1] (Well no.=8408) came to 89.3%. The remaining activity at 3.75 µM in assay [2] (Well no.=8408) was 89.8%.

Take `Nc1ccc(S(=O)(=O)Nc2ccc(Cl)nn2)cc1` [Sulfachloropyridazine]: the remaining activity at 1.25 µM in assay [1] (Well no.=8360) was found to be 93.9%. The remaining activity at 3.75 µM in assay [2] (Well no.=8360) came out at 92.1%.

As for `Cc1oncc1C(=O)Nc1ccc(C(F)(F)F)cc1` [Leflunomide], the remaining activity at 1.25 µM in assay [1] (Well no.=787) was determined as 104%; in assay [1] (Well no.=2268), 96.5%. Further, the remaining activity at 3.75 µM in assay [2] (Well no.=787) came out at 105%; in assay [2] (Well no.=2268) it was 104%.
